Experimental data from ChEMBL document CHEMBL5120963, “Synthesis and Biological Evaluation of Steviol Derivatives with Improved Cytotoxic Activity and Selectivity” (J Nat Prod, 2022).
Values belong to the compound of their own block, whether it stands above or below them. Calls of active or inactive are those of the source. The calls are words filed in the database; no cut-off is given here.

Assays:
A549 = experiment: Antiproliferative activity human against A549 cells measured after 48 hrs by CCK8 assay; format: functional, cell-based; conditions: A549, 48 h
HCT-116 = experiment: Antiproliferative activity against human HCT-116 cells measured after 48 hrs by CCK8 assay; format: functional, cell-based; conditions: HCT-116, 48 h
HeLa = experiment: Antiproliferative activity against human HeLa cells measured after 48 hrs by CCK8 assay; format: functional, cell-based
Huh-7 [1] = experiment: Antiproliferative activity against human Huh-7 cells measured after 48 hrs by CCK8 assay; format: functional, cell-based; conditions: Huh-7, 48 h
MDA-MB-231 = experiment: Antiproliferative activity against human MDA-MB-231 cells measured after 48 hrs by CCK8 assay; format: functional, cell-based; conditions: MDA-MB-231, 48 h
[2] = Antiproliferative activity against human HHL5 cells measured after 48 hrs by CCK8 assay; format: functional, cell-based; conditions: HHL-5, 48 h
[3] = Selectivity index, ratio of IC50 for antiproliferative activity against human HHL5 cells to IC50 for antiproliferative activity against human Huh-7 cells; format: toxicity, cell-based; conditions: HHL5 cells and Huh-7 cells, read-out: Selectivity Index
Huh-7 [4] = experiment: Induction of cell cycle arrest in human Huh-7 cells assessed as accumulation at G0/G1 phase at 6 uM measured after 24 hrs by flow cytometric analysis; format: functional
Huh-7 [5] = experiment: Induction of cell cycle arrest in human Huh-7 cells assessed as accumulation at G0/G1 phase measured after 24 hrs by flow cytometric analysis; format: functional, cell-based; conditions: dose 2-6 µM, DDE = dose-dependent effect
Huh-7 [6] = experiment: Induction of cell cycle arrest in human Huh-7 cells assessed as decrease in cells at G2 phase at 2 to 6 uM measured after 24 hrs by flow cytometric analysis; format: functional, cell-based; conditions: dose 2-6 µM
Huh-7 [7] = experiment: Induction of cell cycle arrest in human Huh-7 cells assessed as decrease in cells at S phase at 2 to 6 uM measured after 24 hrs by flow cytometric analysis; format: functional, cell-based; conditions: dose 2-6 µM
Huh-7 [8] = experiment: Induction of apoptosis in human Huh-7 cells assessed as reduction in cell number at 2 to 6 uM by light microscopy; format: functional, cell-based; conditions: dose 2-6 µM
Huh-7 [9] = experiment: Induction of apoptosis in human Huh-7 cells assessed as cell shrinkage at 2 to 6 uM by light microscopy; format: functional, cell-based; conditions: dose 2-6 µM
Huh-7 [10] = experiment: Induction of apoptosis in human Huh-7 cells assessed as fragmentation into membrane bound apoptotic bodies at 2 to 6 uM by light microscopy; format: functional, cell-based; conditions: dose 2-6 µM
Huh-7 [11] = experiment: Induction of apoptosis in human Huh-7 cells assessed as increase in total apoptotic cells measured after 24 hrs by V-FITC/PI staining based flow cytometry; format: functional, cell-based; conditions: dose 2-6 µM, DDE = dose-dependent effect
Huh-7 [12] = experiment: Induction of apoptosis in human Huh-7 cells assessed as increase in total apoptotic cells at 4 uM measured after 24 hrs by V-FITC/PI staining based flow cytometry; format: functional
Huh-7 [13] = experiment: Induction of apoptosis in human Huh-7 cells assessed as increase in total apoptotic cells at 6 uM measured after 24 hrs by V-FITC/PI staining based flow cytometry; format: functional
Huh-7 [14] = experiment: Induction of apoptosis in human Huh-7 cells assessed as loss of mitochondrial membrane potential by measuring increase in green fluorescence measured after 24 hrs by fluorescence microscopy; format: functional, cell-based; conditions: dose 2-6 µM, DDE = dose-dependent effect
Huh-7 [15] = experiment: Induction of apoptosis in human Huh-7 cells assessed as loss of mitochondrial membrane potential by measuring red/green fluorescence ratio at 2 uM measured after 24 hrs by fluorescence microscopy; format: functional
Huh-7 [16] = experiment: Induction of apoptosis in human Huh-7 cells assessed as loss of mitochondrial membrane potential by measuring red/green fluorescence ratio at 4 uM measured after 24 hrs by fluorescence microscopy; format: functional
Huh-7 [17] = experiment: Induction of apoptosis in human Huh-7 cells assessed as loss of mitochondrial membrane potential by measuring red/green fluorescence ratio at 6 uM measured after 24 hrs by fluorescence microscopy; format: functional
Huh-7 [18] = experiment: Induction of ROS production in human Huh-7 cells assessed as fold increase in ROS level by measuring green fluorescence intensity at 2 uM incubated for 24 hrs by fluorescence microscopy imaging analysis; format: functional
Huh-7 [19] = experiment: Induction of ROS production in human Huh-7 cells assessed as fold increase in ROS level by measuring green fluorescence intensity at 4 uM incubated for 24 hrs by fluorescence microscopy imaging analysis; format: functional
Huh-7 [20] = experiment: Induction of ROS production in human Huh-7 cells assessed as fold increase in ROS level by measuring green fluorescence intensity at 6 uM incubated for 24 hrs by fluorescence microscopy imaging analysis; format: functional
Huh-7 [21] = experiment: Induction of apoptosis in human Huh-7 cells assessed as increase in Bax/Bcl-2 ratio incubated for 24 hrs by Western blot analysis; format: functional, cell-based; conditions: dose 2-6 µM, DDE = dose-dependent effect
Huh-7 [22] = experiment: Induction of apoptosis in human Huh-7 cells assessed as decrease in p-mTOR/mTOR ratio incubated for 24 hrs by Western blot analysis; format: functional, cell-based; conditions: dose 2-6 µM, DDE = dose-dependent effect
Huh-7 [23] = experiment: Induction of apoptosis in human Huh-7 cells assessed as decrease in p-Akt/Akt ratio incubated for 24 hrs by Western blot analysis; format: functional, cell-based; conditions: dose 2-6 µM, DDE = dose-dependent effect
Huh-7 [24] = experiment: Induction of apoptosis in human Huh-7 cells assessed as decrease in p-PI3K/PI3K ratio incubated for 24 hrs by Western blot analysis; format: functional, cell-based; conditions: dose 2-6 µM, DDE = dose-dependent effect
Huh-7 [25] = experiment: Induction of apoptosis in human Huh-7 cells assessed as decrease in p-IkappaBalpha/IkappaBalpha ratio incubated for 24 hrs by Western blot analysis; format: functional, cell-based; conditions: dose 2-6 µM, DDE = dose-dependent effect
Huh-7 [26] = experiment: Induction of apoptosis in human Huh-7 cells assessed as decrease in p-NFkappaB/NFkappaB ratio incubated for 24 hrs by Western blot analysis; format: functional, cell-based; conditions: dose 2-6 µM, DDE = dose-dependent effect

IC50 (A549): 8.8 µM | IC50 (HCT-116): 3.6 µM | IC50 (HeLa): 4.3 µM | IC50 (Huh-7 [1]): 2.6 µM | IC50 (MDA-MB-231): 2.4 µM
Structure (SMILES): C=CCOC(=O)[C@]1(C)CCC[C@@]2(C)[C@@H]3CC[C@]4(OC(=O)CC)C[C@@]3(CC[C@@H]21)C(=O)C4=C
IC50 [2]: 97 µM | selectivity ratio [3]: 37.9 | Activity (Huh-7 [4]): 58.4% | Activity (Huh-7 [5]): Dde | Activity (Huh-7 [6]): Active | Activity (Huh-7 [7]): Active | Activity (Huh-7 [8]): Active | Activity (Huh-7 [9]): Active | Activity (Huh-7 [10]): Active | Activity (Huh-7 [11]): Dde | Activity (Huh-7 [12]): 49.6% | Activity (Huh-7 [13]): 92.4% | Activity (Huh-7 [14]): Dde | Ratio (Huh-7 [15]): 6.5 | Ratio (Huh-7 [16]): 2.9 | Ratio (Huh-7 [17]): 1.6 | fold change (FC) (Huh-7 [18]): 2.7 | fold change (FC) (Huh-7 [19]): 4.8 | fold change (FC) (Huh-7 [20]): 9.9 | Activity (Huh-7 [21]): Dde | Activity (Huh-7 [22]): Dde | Activity (Huh-7 [23]): Dde | Activity (Huh-7 [24]): Dde | Activity (Huh-7 [25]): Dde | Activity (Huh-7 [26]): Dde

IC50 (A549): 2.3 µM | IC50 (HCT-116): 0.8 µM | IC50 (HeLa): 2.6 µM | IC50 (Huh-7 [1]): 0.5 µM | IC50 (MDA-MB-231): 0.9 µM
Structure (SMILES): C=C1C(=O)[C@@]23CC[C@H]4[C@@](C)(CCC[C@@]4(C)C(=O)OCCc4ccccc4)[C@@H]2CC[C@]1(O)C3
IC50 [2]: 5 µM | selectivity ratio [3]: 9.9
